Results as given in patent US20190374627A1, “TARGET PEPTIDES FOR CANCER THERAPY AND DIAGNOSTICS” (priority 2016, published 2019).
Square brackets hold non-standard residues; d marks the D form. Ends that are not written are not given here. pS = N[C@@H](COP(=O)(O)O)C(=O)O

Assays:
[1] = test system: expanded lymphocyte cultures from deceased donor livers, cirrhotic livers and HCC; assay: ICS for MHC-I-pP reactivity of liver-derived lymphocyte cultures after phosphopeptide-specific expansion; type: cell-based, human; details: for ppCTL response, Deceased Donor Liver Do 2 / ppCTL response, Deceased Donor Liver Do 3 / ppCTL response, Deceased Donor Liver Do 4 / ppCTL response, Deceased Donor Liver Do 6 / ppCTL response, End-stage Liver Cirrhosis IHL 11 / ppCTL response, End-stage Liver Cirrhosis IHL 12 / ppCTL response, End-stage Liver Cirrhosis IHL 13 / ppCTL response, End-stage Liver Cirrhosis IHL 15 / ppCTL response, HCC Distal HCC 1 / ppCTL response, HCC Tumor HCC 1 / ppCTL response, HCC Distal HCC 4 / ppCTL response, HCC Distal HCC 9 / ppCTL response, HCC Tumor HCC 9 / ppCTL response, HCC Distal HCC 12: pP-specifically expanded culture; for ppCTL response, HCC Distal HCC 1: HCC 1 Distal; for ppCTL response, HCC Tumor HCC 1: HCC 1 Tumor; for ppCTL response, HCC Distal HCC 4: HCC 4 Distal; for ppCTL response, HCC Distal HCC 9: HCC 9 Distal; for ppCTL response, HCC Tumor HCC 9: HCC 9 Tumor; for ppCTL response, HCC Distal HCC 12: HCC 12 Distal
[2] = test system: unexpanded lymphocyte cultures (CD8^+ T cells); assay: ICS for MHC-I-pP reactivity of lymphocyte cultures without expansion (Table 23, No Expansion)
[3] = test system: expanded TIL / IHL cultures; assay: ICS for MHC-I-pP reactivity of liver-derived lymphocyte cultures after unspecific rapid expansion protocol (REP); type: cell-based, human
CD8^+ T cells (PBMCs) = assay: Intracellular cytokine staining (ICS) of PBMCs after 7 days of stimulation with MHC-I-pP (healthy donors, HH patients); type: cell-based, human; details: for Reactive CD8^+ T cell population, HH2: HH patient HH2; for Reactive CD8^+ T cell population, HH3: HH patient HH3; for Reactive CD8^+ T cell population, HH6: HH patient HH6; for Reactive CD8^+ T cell population, HH8: HH patient HH8; for Reactive CD8^+ T cell population, HH11: HH patient HH11; for Reactive CD8^+ T cell population, HD1: Healthy donor HD1; for Reactive CD8^+ T cell population, HD4: Healthy donor HD4; for Reactive CD8^+ T cell population, HD5: Healthy donor HD5; for Reactive CD8^+ T cell population, HH10: HH patient HH10; for Reactive CD8^+ T cell population, HD2: Healthy donor HD2; for Reactive CD8^+ T cell population, HD3: Healthy donor HD3
Summary of the method: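 PBMCs or liver lymphocytes from HLA-A*0201-positive healthy donors and hereditary hemochromatosis patients were stimulated for 7 days with HLA-A*0201-restricted phosphopeptides and no added cytokines. After exclusion of doublets and dead cells with a fixable viability dye, CD3^+CD8^+ cells were analysed by intracellular staining for IFN-γ and TNF-α, plus CD107a where needed.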

Substance	Reactive CD8^+ T cells, pP-specific Expansion, Do2 [1]	Reactive CD8^+ T cells, pP-specific Expansion, Do4 [1]	Reactive CD8^+ T cells, pP-specific Expansion, HH6 [1]	ppCTL response, Deceased Donor Liver Do 2 [1]	ppCTL response, Deceased Donor Liver Do 3 [1]	ppCTL response, Deceased Donor Liver Do 4 [1]	ppCTL response, Deceased Donor Liver Do 6 [1]	ppCTL response, End-stage Liver Cirrhosis IHL 11 [1]	ppCTL response, End-stage Liver Cirrhosis IHL 12 [1]	ppCTL response, End-stage Liver Cirrhosis IHL 13 [1]	ppCTL response, End-stage Liver Cirrhosis IHL 15 [1]	ppCTL response, HCC Distal HCC 1 [1]	ppCTL response, HCC Tumor HCC 1 [1]	ppCTL response, HCC Distal HCC 4 [1]	ppCTL response, HCC Distal HCC 9 [1]	ppCTL response, HCC Tumor HCC 9 [1]	ppCTL response, HCC Distal HCC 12 [1]	Reactive CD8^+ T cells, No Expansion, HH6 [2]	Reactive CD8^+ T cells, Non-specific Expansion, Do2 [3]	Reactive CD8^+ T cells, Non-specific Expansion, Do4 [3]	further results
KAFsPVRSV: ID2 phosphopeptide, HLA-A*0201 (KAF[pS]PVRSV; listed as Homo sapiens)	0 (<0.25% reactive CD8^-+ T cells)	0 (<0.25% reactive CD8^-+ T cells)	0 (<0.25% reactive CD8^-+ T cells)	1 (0.25-2.5% reactive CD8-+ T cells)	0 (<0.25% reactive CD8-+ T cells)	0 (<0.25% reactive CD8-+ T cells)	0 (<0.25% reactive CD8-+ T cells)	0 (<0.25% reactive CD8-+ T cells)	0 (<0.25% reactive CD8-+ T cells)	0 (<0.25% reactive CD8-+ T cells)	0 (<0.25% reactive CD8-+ T cells)	0 (<0.25% reactive CD8-+ T cells)	0 (<0.25% reactive CD8-+ T cells)	0 (<0.25% reactive CD8-+ T cells)	0 (<0.25% reactive CD8-+ T cells)	0 (<0.25% reactive CD8-+ T cells)	0 (<0.25% reactive CD8-+ T cells)	0 (<0.25% reactive CD8^-+ T cells)	0 (<0.25% reactive CD8^-+ T cells)	0 (<0.25% reactive CD8^-+ T cells)	Reactive CD8^+ T cells, Non-specific Expansion, HH6 [3]: 0 (<0.25% reactive CD8^-+ T cells); Reactive CD8^+ T cell population, HH2 (CD8^+ T cells (PBMCs)): 0 (<0.25% reactive CD8^-+ T cells); Reactive CD8^+ T cell population, HH3 (CD8^+ T cells (PBMCs)): 0 (<0.25% reactive CD8^-+ T cells); Reactive CD8^+ T cell population, HH6 (CD8^+ T cells (PBMCs)): 0 (<0.25% reactive CD8^-+ T cells); Reactive CD8^+ T cell population, HH8 (CD8^+ T cells (PBMCs)): 0 (<0.25% reactive CD8^-+ T cells); Reactive CD8^+ T cell population, HH11 (CD8^+ T cells (PBMCs)): 0 (<0.25% reactive CD8^-+ T cells); Reactive CD8^+ T cell population, HD1 (CD8^+ T cells (PBMCs)): 0 (<0.25% reactive CD8^-+ T cells); Reactive CD8^+ T cell population, HD4 (CD8^+ T cells (PBMCs)): 0 (<0.25% reactive CD8^-+ T cells); Reactive CD8^+ T cell population, HD5 (CD8^+ T cells (PBMCs)): 0 (<0.25% reactive CD8^-+ T cells)
KIAsEIAQL: CASKIN2 phosphopeptide, HLA-A*0201 (KIA[pS]EIAQL; listed as Homo sapiens)	0 (<0.25% reactive CD8^-+ T cells)	0 (<0.25% reactive CD8^-+ T cells)	0 (<0.25% reactive CD8^-+ T cells)	0 (<0.25% reactive CD8-+ T cells)	0 (<0.25% reactive CD8-+ T cells)	1 (0.25-2.5% reactive CD8-+ T cells)	1 (0.25-2.5% reactive CD8-+ T cells)	0 (<0.25% reactive CD8-+ T cells)	0 (<0.25% reactive CD8-+ T cells)	0 (<0.25% reactive CD8-+ T cells)	0 (<0.25% reactive CD8-+ T cells)	0 (<0.25% reactive CD8-+ T cells)	0 (<0.25% reactive CD8-+ T cells)	0 (<0.25% reactive CD8-+ T cells)	0 (<0.25% reactive CD8-+ T cells)	0 (<0.25% reactive CD8-+ T cells)	0 (<0.25% reactive CD8-+ T cells)	1 (0.25-2.5% reactive CD8^-+ T cells)	1 (0.25-2.5% reactive CD8^-+ T cells)	0 (<0.25% reactive CD8^-+ T cells)	Reactive CD8^+ T cells, Non-specific Expansion, HH6 [3]: 1 (0.25-2.5% reactive CD8^-+ T cells); Reactive CD8^+ T cell population, HH2 (CD8^+ T cells (PBMCs)): 0 (<0.25% reactive CD8^-+ T cells); Reactive CD8^+ T cell population, HH3 (CD8^+ T cells (PBMCs)): 0 (<0.25% reactive CD8^-+ T cells); Reactive CD8^+ T cell population, HH6 (CD8^+ T cells (PBMCs)): 1 (0.25-2.5% reactive CD8^-+ T cells); Reactive CD8^+ T cell population, HH8 (CD8^+ T cells (PBMCs)): 0 (<0.25% reactive CD8^-+ T cells); Reactive CD8^+ T cell population, HD1 (CD8^+ T cells (PBMCs)): 0 (<0.25% reactive CD8^-+ T cells); Reactive CD8^+ T cell population, HD4 (CD8^+ T cells (PBMCs)): 0 (<0.25% reactive CD8^-+ T cells); Reactive CD8^+ T cell population, HD5 (CD8^+ T cells (PBMCs)): 0 (<0.25% reactive CD8^-+ T cells)
RTHsLLLLL (RTH[pS]LLLLL; listed as Homo sapiens)	0 (<0.25% reactive CD8^-+ T cells)	0 (<0.25% reactive CD8^-+ T cells)	0 (<0.25% reactive CD8^-+ T cells)	0 (<0.25% reactive CD8-+ T cells)	0 (<0.25% reactive CD8-+ T cells)	0 (<0.25% reactive CD8-+ T cells)	0 (<0.25% reactive CD8-+ T cells)	0 (<0.25% reactive CD8-+ T cells)	0 (<0.25% reactive CD8-+ T cells)	0 (<0.25% reactive CD8-+ T cells)	0 (<0.25% reactive CD8-+ T cells)	0 (<0.25% reactive CD8-+ T cells)	0 (<0.25% reactive CD8-+ T cells)	0 (<0.25% reactive CD8-+ T cells)	0 (<0.25% reactive CD8-+ T cells)	0 (<0.25% reactive CD8-+ T cells)	0 (<0.25% reactive CD8-+ T cells)	1 (0.25-2.5% reactive CD8^-+ T cells)	0 (<0.25% reactive CD8^-+ T cells)	0 (<0.25% reactive CD8^-+ T cells)	Reactive CD8^+ T cells, No Expansion, Do4 [2]: 2 (2.5-5.0% reactive CD8^-+ T cells); Reactive CD8^+ T cells, Non-specific Expansion, HH6 [3]: 1 (0.25-2.5% reactive CD8^-+ T cells); Reactive CD8^+ T cell population, HH2 (CD8^+ T cells (PBMCs)): 0 (<0.25% reactive CD8^-+ T cells); Reactive CD8^+ T cell population, HH3 (CD8^+ T cells (PBMCs)): 0 (<0.25% reactive CD8^-+ T cells); Reactive CD8^+ T cell population, HH6 (CD8^+ T cells (PBMCs)): 0 (<0.25% reactive CD8^-+ T cells); Reactive CD8^+ T cell population, HH8 (CD8^+ T cells (PBMCs)): 0 (<0.25% reactive CD8^-+ T cells); Reactive CD8^+ T cell population, HH10 (CD8^+ T cells (PBMCs)): 0 (<0.25% reactive CD8^-+ T cells); Reactive CD8^+ T cell population, HH11 (CD8^+ T cells (PBMCs)): 0 (<0.25% reactive CD8^-+ T cells); Reactive CD8^+ T cell population, HD1 (CD8^+ T cells (PBMCs)): 0 (<0.25% reactive CD8^-+ T cells); Reactive CD8^+ T cell population, HD2 (CD8^+ T cells (PBMCs)): 0 (<0.25% reactive CD8^-+ T cells); Reactive CD8^+ T cell population, HD3 (CD8^+ T cells (PBMCs)): 0 (<0.25% reactive CD8^-+ T cells); Reactive CD8^+ T cell population, HD4 (CD8^+ T cells (PBMCs)): 0 (<0.25% reactive CD8^-+ T cells); Reactive CD8^+ T cell population, HD5 (CD8^+ T cells (PBMCs)): 0 (<0.25% reactive CD8^-+ T cells)
NLVPMVATV (Cytomegalovirus) [reference compound]	3 (5-7.5% reactive CD8^-+ T cells)	2 (2.5-5.0% reactive CD8^-+ T cells)	3 (5-7.5% reactive CD8^-+ T cells)	3 (5-7.5% reactive CD8-+ T cells)	0 (<0.25% reactive CD8-+ T cells)	2 (2.5-5.0% reactive CD8-+ T cells)	0 (<0.25% reactive CD8-+ T cells)	0 (<0.25% reactive CD8-+ T cells)	0 (<0.25% reactive CD8-+ T cells)	0 (<0.25% reactive CD8-+ T cells)	0 (<0.25% reactive CD8-+ T cells)	1 (0.25-2.5% reactive CD8-+ T cells)	0 (<0.25% reactive CD8-+ T cells)	0 (<0.25% reactive CD8-+ T cells)	0 (<0.25% reactive CD8-+ T cells)	0 (<0.25% reactive CD8-+ T cells)	0 (<0.25% reactive CD8-+ T cells)	1 (0.25-2.5% reactive CD8^-+ T cells)	0 (<0.25% reactive CD8^-+ T cells)	5 (10-20% reactive CD8^-+ T cells)	Reactive CD8^+ T cells, No Expansion, Do4 [2]: 2 (2.5-5.0% reactive CD8^-+ T cells); Reactive CD8^+ T cells, Non-specific Expansion, HH6 [3]: 1 (0.25-2.5% reactive CD8^-+ T cells); Reactive CD8^+ T cell population, HH2 (CD8^+ T cells (PBMCs)): 4 (7.5-10% reactive CD8^-+ T cells); Reactive CD8^+ T cell population, HH3 (CD8^+ T cells (PBMCs)): 0 (<0.25% reactive CD8^-+ T cells); Reactive CD8^+ T cell population, HH6 (CD8^+ T cells (PBMCs)): 1 (0.25-2.5% reactive CD8^-+ T cells); Reactive CD8^+ T cell population, HH8 (CD8^+ T cells (PBMCs)): 1 (0.25-2.5% reactive CD8^-+ T cells); Reactive CD8^+ T cell population, HH10 (CD8^+ T cells (PBMCs)): 3 (5-7.5% reactive CD8^-+ T cells); Reactive CD8^+ T cell population, HH11 (CD8^+ T cells (PBMCs)): 0 (<0.25% reactive CD8^-+ T cells); Reactive CD8^+ T cell population, HD1 (CD8^+ T cells (PBMCs)): 0 (<0.25% reactive CD8^-+ T cells); Reactive CD8^+ T cell population, HD2 (CD8^+ T cells (PBMCs)): 0 (<0.25% reactive CD8^-+ T cells); Reactive CD8^+ T cell population, HD3 (CD8^+ T cells (PBMCs)): 0 (<0.25% reactive CD8^-+ T cells); Reactive CD8^+ T cell population, HD4 (CD8^+ T cells (PBMCs)): 0 (<0.25% reactive CD8^-+ T cells); Reactive CD8^+ T cell population, HD5 (CD8^+ T cells (PBMCs)): 0 (<0.25% reactive CD8^-+ T cells)
